Laboratory results as given in US20230227499A1, “PRODRUGS OF MITOCHONDRIA-TARGETING OLIGOPEPTIDES” (Stealth Biotherapeutics Inc., priority 2020, published 2023).
Entries after “also recorded” stand apart in the source; their conditions may differ.

Key:
[1] = system: isolated perfused guinea pig heart; experiment: Ischemia-reperfusion-induced myocardial stunning in isolated perfused guinea pig heart (Langendorff); conditions: for myocardial contractile force during ischemia-reperfusion / tolerance of ischemia versus buffer-treated hearts: SS-02 100 nM or SS-31 1 nM perfused 30 min; for myocardial contractile force during ischemia-reperfusion: 30-min global ischemia, then reperfusion (FIG. 2)
Method: Guinea pig hearts were rapidly isolated, and the aorta was cannulated in situ and perfused in a retrograde fashion with an oxygenated Krebs-Henseleit solution (pH 7.4) at 34° C. The heart was then excised, mounted on a modified Langendorff perfusion apparatus, and perfused at constant pressure (40 cm H20). Contractile force was measured with a small hook inserted into the apex of the left ventricle and the silk ligature tightly connected to a force-displacement transducer. Coronary flow was measured by timed collection of pulmonary artery effluent.
Hearts were perfused with buffer, 2′,6′-Dmt-D-Arg-PheLys-NH2 (SS-02) (100 nM) or D-Arg-Dmt-Lys-Phe-NH2 (SS-31) (1 nM) for 30 min and then subjected to 30 min of global ischemia Reperfusion was carried out with the same solution used prior to ischemia.

isolated mitochondria = experiment: Mitochondrial permeability transition (MPT) induced by Ca2+ in isolated mitochondria; conditions: pretreatment of isolated mitochondria with SS-31 10 μM (FIG. 1A)
Method: (§1) FIGS. 1A-1C depict that D-Arg-Dmt-Lys-Phe-NH2 (SS-31; MTP-131) inhibits mitochondrial swelling and cytochrome c release. […] Gray line, buffer; red line, SS-31. […] Swelling was measured by light scattering measured at 570 nm. FIG. 1 C depicts the comparison of SS-02 and SS-31 with cyclosporine (CsA) in inhibiting mitochondrial swelling and cytochrome c release induced by Ca2+. The amount of cytochrome c released was expressed as percent of total cytochrome c in mitochondria. Data are presented as mean±s.e., n=3.
(§2) MPT pore opening results in mitochondrial swelling. We examined the effects of (SS-31) on mitochondrial swelling, which was measured using light scattering monitored at 570 nm.

mitochondria [2] = experiment: Mitochondrial swelling induced by Ca2+, light scattering at 570 nm; conditions: pretreatment with SS-31 50 μM, light scattering at 570 nm (FIG. 1B)
Method: as §1, §2

mitochondria [3] = experiment: Cytochrome c release from mitochondria induced by Ca2+; conditions: FIG. 1C
Method: as §1, §2

[4] = 30 min global ischemia, then reperfusion

Compound	myocardial contractile force during ischemia-reperfusion [1]	tolerance of ischemia versus buffer-treated hearts [1, 4]	onset of MPT induced by Ca2+ (isolated mitochondria)	mitochondrial swelling induced by Ca2+ (mitochondria [2])	cytochrome c release induced by Ca2+ (mitochondria [3])	inhibition of cardiac stunning ([1]; SS-31 1 nM, 30 min global ischemia, then reperfusion)	heart rate ([1]; SS-31 1 nM, ischemia-reperfusion)	coronary flow during reperfusion ([1]; SS-31 1 nM, timed collection of pulmonary artery effluent)
2′,6′-Dmt-D-Arg-PheLys-NH2 [SS-02]	protects myocardial contractile force	tolerated ischemia much better than buffer-treated hearts	–	–	–	–	–	–
Cc1cc(O)cc(C)c1C[C@H](CC(=O)[C@H](N)CCCNC(=N)N)C(=O)N[C@@H](CCCCN)C(=O)N[C@@H](Cc1ccccc1)C(N)=O [SS-31, D-Arg-Dmt-Lys-Phe-NH2]	protects myocardial contractile force	tolerated ischemia much better than buffer-treated hearts	has the same ability to protect against MPT; also recorded: prevents onset of MPT	has the same ability to protect against; also recorded: inhibited mitochondrial swelling	has the same ability to protect against	complete inhibition of cardiac stunning	no decrease in heart rate	well-sustained throughout reperfusion
